According to PubChem BioAssay AID2060489 (Molecular Pharmacology Branch, DTP, NCI, 2025):
One block for each molecule: values may come before it.

System: 922993-354-T-J3-PDC complex spheroids, viability
Experiment: Anticancer human tumor 922993-354-T-J3-PDC patient-derived endometrial carcinoma cell line growth inhibition [GQUAD]
Settings: for IC50: curve of first compound; for viability, T/C: stronger effect = lower value
How it was run: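 Tumor cells were grown as complex spheroids with HUVEC endothelial cells and mesenchymal stem cells as stroma. G-quadruplex stabilizers were combined with targeted agents over half-log dilutions from near the clinical Cmax, or from 10 microM.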

[1] = second compound 0.0316 µM, first compound 0.0316 µM
[2] = second compound 0.0316 µM, first compound 0.1 µM
[3] = second compound 0.0316 µM, first compound 0.316 µM
[4] = second compound 0.0316 µM, first compound 1 µM
[5] = second compound 0.0316 µM, first compound 3.16 µM
[6] = second compound 0.0316 µM, first compound 10 µM
[7] = second compound 0.1 µM, first compound 0.0316 µM
[8] = second compound 0.1 µM, first compound 0.1 µM
[9] = second compound 0.1 µM, first compound 0.316 µM
[10] = second compound 0.1 µM, first compound 1 µM
[11] = second compound 0.1 µM, first compound 3.16 µM
[12] = second compound 0.1 µM, first compound 10 µM
[13] = second compound 0.316 µM, first compound 0.0316 µM
[14] = second compound 0.316 µM, first compound 0.1 µM
[15] = second compound 0.316 µM, first compound 0.316 µM
[16] = second compound 0.316 µM, first compound 1 µM
[17] = second compound 0.316 µM, first compound 3.16 µM
[18] = second compound 0.316 µM, first compound 10 µM
[19] = second compound 1 µM, first compound 0.0316 µM
[20] = second compound 1 µM, first compound 0.1 µM
[21] = second compound 1 µM, first compound 0.316 µM
[22] = second compound 1 µM, first compound 1 µM
[23] = second compound 1 µM, first compound 3.16 µM
[24] = second compound 1 µM, first compound 10 µM
[25] = second compound 3.16 µM, first compound 0.0316 µM
[26] = second compound 3.16 µM, first compound 0.1 µM
[27] = second compound 3.16 µM, first compound 0.316 µM
[28] = second compound 3.16 µM, first compound 1 µM
[29] = second compound 3.16 µM, first compound 3.16 µM
[30] = second compound 3.16 µM, first compound 10 µM
[31] = second compound 10 µM, first compound 0.0316 µM
[32] = second compound 10 µM, first compound 0.1 µM
[33] = second compound 10 µM, first compound 0.316 µM
[34] = second compound 10 µM, first compound 1 µM
[35] = second compound 10 µM, first compound 3.16 µM
[36] = second compound 10 µM, first compound 10 µM
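Note: spheroids exposed to compounds for seven days.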
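Throughout, for viability, T/C: 100% = DMSO vehicle control viability.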

SMILES: CC(C)n1c(=O)n(C)c2cnc3cc(F)c(-c4ccc(OCCCN5CCCCC5)nc4)cc3c21 + CN(C)c1ccc(Nc2c3ccc(NC(=O)CCN4CCCC4)cc3nc3cc(NC(=O)CCN4CCCC4)ccc23)cc1
IC50 (second compound 0.0316 µM): > 10 µM
IC50 (second compound 0.1 µM): > 10 µM
IC50 (second compound 0.316 µM): > 10 µM
IC50 (second compound 1 µM): > 10 µM
IC50 (second compound 3.16 µM): 7.04 µM
IC50 (second compound 10 µM): 1.82 µM
viability, T/C [1]: 118%
viability, T/C [2]: 84.9%
viability, T/C [3]: 99.3%
viability, T/C [4]: 59.6%
viability, T/C [5]: 91.7%
viability, T/C [6]: 71.4%
viability, T/C [7]: 114%
viability, T/C [8]: 89.5%
viability, T/C [9]: 101%
viability, T/C [10]: 73.3%
viability, T/C [11]: 81.7%
viability, T/C [12]: 59%
viability, T/C [13]: 99.3%
viability, T/C [14]: 91.7%
viability, T/C [15]: 97%
viability, T/C [16]: 70.2%
viability, T/C [17]: 84.7%
viability, T/C [18]: 70.9%
viability, T/C [19]: 81.2%
viability, T/C [20]: 97%
viability, T/C [21]: 92.2%
viability, T/C [22]: 82.1%
viability, T/C [23]: 77.1%
viability, T/C [24]: 65%
viability, T/C [25]: 96.8%
viability, T/C [26]: 103%
viability, T/C [27]: 98.5%
viability, T/C [28]: 76%
viability, T/C [29]: 67.6%
viability, T/C [30]: 43%
viability, T/C [31]: 114%
viability, T/C [32]: 73.7%
viability, T/C [33]: 114%
viability, T/C [34]: 67%
viability, T/C [35]: 36.1%
viability, T/C [36]: 32.3%

SMILES: CC(C)(O)C1CCC(Nc2ccc3ncc(-c4cccc(C(F)(F)F)c4)n3n2)CC1 (stereo unspecified) + CN(C)c1ccc(Nc2c3ccc(NC(=O)CCN4CCCC4)cc3nc3cc(NC(=O)CCN4CCCC4)ccc23)cc1
IC50 (second compound 0.0316 µM): > 10 µM
IC50 (second compound 0.1 µM): > 10 µM
IC50 (second compound 0.316 µM): > 10 µM
IC50 (second compound 1 µM): > 10 µM
IC50 (second compound 3.16 µM): > 10 µM
IC50 (second compound 10 µM): > 10 µM
viability, T/C [1]: 78.5%
viability, T/C [2]: 92.8%
viability, T/C [3]: 99.9%
viability, T/C [4]: 80.2%
viability, T/C [5]: 85.1%
viability, T/C [6]: 92.3%
viability, T/C [7]: 100%
viability, T/C [8]: 91%
viability, T/C [9]: 88.6%
viability, T/C [10]: 87.6%
viability, T/C [11]: 76.6%
viability, T/C [12]: 81.2%
viability, T/C [13]: 108%
viability, T/C [14]: 83%
viability, T/C [15]: 96.5%
viability, T/C [16]: 89.7%
viability, T/C [17]: 58%
viability, T/C [18]: 63.3%
viability, T/C [19]: 69.5%
viability, T/C [20]: 96.2%
viability, T/C [21]: 79%
viability, T/C [22]: 75.2%
viability, T/C [23]: 78.9%
viability, T/C [24]: 61.2%
viability, T/C [25]: 92%
viability, T/C [26]: 95%
viability, T/C [27]: 90.4%
viability, T/C [28]: 94.3%
viability, T/C [29]: 85%
viability, T/C [30]: 74.4%
viability, T/C [31]: 120%
viability, T/C [32]: 140%
viability, T/C [33]: 103%
viability, T/C [34]: 88.8%
viability, T/C [35]: 78.3%
viability, T/C [36]: 55%

IC50 (second compound 0.0316 µM): > 10 µM
IC50 (second compound 0.1 µM): > 10 µM
IC50 (second compound 0.316 µM): < 0.0316 µM
IC50 (second compound 1 µM): < 0.0316 µM
IC50 (second compound 3.16 µM): < 0.0316 µM
IC50 (second compound 10 µM): < 0.0316 µM
SMILES: COc1cc(C2c3cc4c(cc3C(OC3OC5COC(C)OC5C(O)C3O)C3COC(=O)C23)OCO4)cc(OC)c1O (stereo unspecified) + Cc1cnc(CNC(=O)c2c(=O)c3ccc(N4CCCN(C)CC4)nc3n3c2sc2ccccc23)cn1
viability, T/C [1]: 82.3%
viability, T/C [2]: 60%
viability, T/C [3]: 60.5%
viability, T/C [4]: 74.5%
viability, T/C [5]: 50.9%
viability, T/C [6]: 49.9%
viability, T/C [7]: 62.3%
viability, T/C [8]: 59.1%
viability, T/C [9]: 53.8%
viability, T/C [10]: 63.6%
viability, T/C [11]: 62.8%
viability, T/C [12]: 39.9%
viability, T/C [13]: 44.1%
viability, T/C [14]: 53.2%
viability, T/C [15]: 38.6%
viability, T/C [16]: 49.7%
viability, T/C [17]: 41.6%
viability, T/C [18]: 34.3%
viability, T/C [19]: 46.8%
viability, T/C [20]: 39.9%
viability, T/C [21]: 49.6%
viability, T/C [22]: 36.1%
viability, T/C [23]: 36%
viability, T/C [24]: 43.4%
viability, T/C [25]: 40.6%
viability, T/C [26]: 47%
viability, T/C [27]: 39.1%
viability, T/C [28]: 46.6%
viability, T/C [29]: 52.4%
viability, T/C [30]: 48.2%
viability, T/C [31]: 47.9%
viability, T/C [32]: 50.3%
viability, T/C [33]: 45.4%
viability, T/C [34]: 38.2%
viability, T/C [35]: 43.4%
viability, T/C [36]: 41%
